Values quoted from earlier work, collected in patent US20090304869A1, “Peptides Having an Ace Inhibiting Effect” (priority 2005, published 2009).

Tests used:
ACE = ACE (Homo sapiens, UniProt P12821); settings: peptides in fermented milk products
[1] = in sour milk, hypertensive humans

Sequence of ACE (P12821 30-1306, species assumed): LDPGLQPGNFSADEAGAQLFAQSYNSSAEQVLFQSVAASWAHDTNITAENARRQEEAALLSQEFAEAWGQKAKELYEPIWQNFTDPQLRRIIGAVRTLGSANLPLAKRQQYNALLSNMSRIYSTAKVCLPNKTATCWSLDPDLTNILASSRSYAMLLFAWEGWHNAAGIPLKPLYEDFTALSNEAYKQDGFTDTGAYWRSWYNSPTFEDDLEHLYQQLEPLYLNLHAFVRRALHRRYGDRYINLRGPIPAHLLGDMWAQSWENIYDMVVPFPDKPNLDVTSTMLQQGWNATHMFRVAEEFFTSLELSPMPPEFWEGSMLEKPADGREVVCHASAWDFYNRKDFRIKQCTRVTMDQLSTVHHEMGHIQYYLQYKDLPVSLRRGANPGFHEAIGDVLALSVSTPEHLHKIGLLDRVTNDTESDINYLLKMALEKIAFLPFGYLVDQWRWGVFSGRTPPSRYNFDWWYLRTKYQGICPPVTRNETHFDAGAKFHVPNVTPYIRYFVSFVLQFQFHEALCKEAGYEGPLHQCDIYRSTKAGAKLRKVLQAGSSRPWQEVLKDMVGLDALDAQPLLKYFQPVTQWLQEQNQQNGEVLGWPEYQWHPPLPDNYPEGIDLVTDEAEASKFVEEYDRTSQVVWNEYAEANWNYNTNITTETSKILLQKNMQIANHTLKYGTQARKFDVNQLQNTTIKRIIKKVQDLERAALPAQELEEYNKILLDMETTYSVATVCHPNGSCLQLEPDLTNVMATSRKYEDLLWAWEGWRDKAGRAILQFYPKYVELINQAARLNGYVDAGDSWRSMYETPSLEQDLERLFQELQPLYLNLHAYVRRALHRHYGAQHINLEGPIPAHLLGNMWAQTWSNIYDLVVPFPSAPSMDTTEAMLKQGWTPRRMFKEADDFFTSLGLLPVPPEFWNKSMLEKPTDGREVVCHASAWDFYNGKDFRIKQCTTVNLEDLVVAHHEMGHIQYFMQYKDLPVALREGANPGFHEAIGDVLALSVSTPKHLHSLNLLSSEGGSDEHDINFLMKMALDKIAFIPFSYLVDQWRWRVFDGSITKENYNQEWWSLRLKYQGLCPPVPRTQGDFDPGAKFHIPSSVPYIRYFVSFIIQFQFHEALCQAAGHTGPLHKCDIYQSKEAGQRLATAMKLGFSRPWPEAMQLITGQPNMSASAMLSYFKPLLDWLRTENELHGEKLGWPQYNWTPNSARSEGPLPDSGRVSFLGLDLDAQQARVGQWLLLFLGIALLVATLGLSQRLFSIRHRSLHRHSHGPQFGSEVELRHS

For `CC[C@H](C)[C@H](N)C(=O)N1CCC[C@H]1C(=O)N1CCC[C@H]1C(=O)O` [IPP], the “in vitro ACE inhibition” value (ACE) is given as “showed in vitro ACE inhibition” and the “blood pressure lowering effect” value [1] is given as “blood pressure lowering effect”.
